Key:
[1] = biological target: T1, Catenin beta-1 (Homo sapiens) (UniProt P35222); test: Inhibition of beta-catenin transcriptional activity in human A549 cells after 24 hrs by luciferase reporter assay; type: cell-based; design: concentration or dose not given beside the values
T1 sequence (whole entry): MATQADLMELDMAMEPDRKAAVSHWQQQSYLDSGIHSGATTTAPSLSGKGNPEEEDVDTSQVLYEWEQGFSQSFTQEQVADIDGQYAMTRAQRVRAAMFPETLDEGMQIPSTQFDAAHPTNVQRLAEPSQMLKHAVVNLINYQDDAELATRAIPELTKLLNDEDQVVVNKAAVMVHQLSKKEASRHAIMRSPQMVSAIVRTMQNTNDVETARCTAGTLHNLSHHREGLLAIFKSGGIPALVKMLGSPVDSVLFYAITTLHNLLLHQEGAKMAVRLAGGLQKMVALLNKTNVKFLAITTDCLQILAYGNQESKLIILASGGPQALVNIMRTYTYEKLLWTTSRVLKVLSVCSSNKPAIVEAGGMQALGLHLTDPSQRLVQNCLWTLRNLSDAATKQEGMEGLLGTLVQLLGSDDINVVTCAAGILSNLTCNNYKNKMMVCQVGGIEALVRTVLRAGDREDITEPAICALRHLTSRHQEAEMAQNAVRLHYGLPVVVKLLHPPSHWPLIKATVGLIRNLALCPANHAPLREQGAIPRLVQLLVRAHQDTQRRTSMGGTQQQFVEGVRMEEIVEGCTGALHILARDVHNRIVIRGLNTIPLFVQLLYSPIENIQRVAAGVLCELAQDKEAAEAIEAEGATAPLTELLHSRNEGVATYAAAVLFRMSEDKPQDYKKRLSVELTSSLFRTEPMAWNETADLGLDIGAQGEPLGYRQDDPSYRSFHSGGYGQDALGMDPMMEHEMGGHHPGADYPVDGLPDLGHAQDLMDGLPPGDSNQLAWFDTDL

A549 [2] = test: Antiproliferative activity against human A549 cells after 3 days by CCK8 assay; type: functional; design: concentration or dose not given beside the values
A549 [3] = test: Induction of apoptosis in human A549 cells assessed as late apoptotic cells at 3 uM after 3 days by annexin V staining-based flow cytometric analysis (reference value: 0.5%); type: functional
A549 [4] = test: Induction of apoptosis in human A549 cells assessed as late apoptotic cells at 3 uM after 1 day by annexin V staining-based flow cytometric analysis (reference value: 0.5%); type: functional
A549 [5] = test: Induction of apoptosis in human A549 cells assessed as early apoptotic cells at 3 uM after 3 days by annexin V staining-based flow cytometric analysis (reference value: 1.3%); type: functional
A549 [6] = test: Induction of apoptosis in human A549 cells assessed as early apoptotic cells at 3 uM after 1 day by annexin V staining-based flow cytometric analysis (reference value: 1.3%); type: functional
A549 [7] = test: Induction of apoptosis in human A549 cells assessed as dead cells at 3 uM after 3 days by annexin V staining-based flow cytometric analysis (reference value: 0.2%); type: functional
A549 [8] = test: Induction of apoptosis in human A549 cells assessed as late apoptotic cells at 3 uM after 2 days by annexin V staining-based flow cytometric analysis (reference value: 0.5%); type: functional
A549 [9] = test: Induction of apoptosis in human A549 cells assessed as up regulation of phosphorylated p53 (S46) level at 3 uM incubated for 12 to 24 hrs by Western blot analysis; type: functional, cell-based; details: TDE = time-dependent effect
A549 [10] = test: Induction of apoptosis in human A549 cells assessed as early apoptotic cells at 3 uM after 2 days by annexin V staining-based flow cytometric analysis (reference value: 1.3%); type: functional
A549 [11] = test: Induction of apoptosis in human A549 cells assessed as live cells at 3 uM after 2 days by annexin V staining-based flow cytometric analysis (reference value: 98%); type: functional
A549 [12] = test: Induction of apoptosis in human A549 cells at 3 uM by annexin V staining-based flow cytometric analysis; type: functional, cell-based; details: TDE = time-dependent effect
A549 [13] = test: Induction of apoptosis in human A549 cells assessed as up regulation of phosphorylated p53 (S392) level at 3 uM incubated for 12 to 24 hrs by Western blot analysis; type: functional, cell-based; details: TDE = time-dependent effect
A549 [14] = test: Induction of apoptosis in human A549 cells assessed as up regulation of phosphorylated p53 (S15) level at 3 uM incubated for 12 to 24 hrs by Western blot analysis; type: functional, cell-based; details: TDE = time-dependent effect
A549 [15] = test: Induction of apoptosis in human A549 cells assessed as dead cells at 3 uM after 2 days by annexin V staining-based flow cytometric analysis (reference value: 0.2%); type: functional
A549 [16] = test: Induction of apoptosis in human A549 cells assessed as dead cells at 3 uM after 1 day by annexin V staining-based flow cytometric analysis (reference value: 0.2%); type: functional
A549 [17] = test: Induction of apoptosis in human A549 cells assessed as live cells at 3 uM after 1 day by annexin V staining-based flow cytometric analysis (reference value: 98%); type: functional
A549 [18] = test: Induction of apoptosis in human A549 cells assessed as live cells at 3 uM after 3 days by annexin V staining-based flow cytometric analysis (reference value: 98%); type: functional

SMILES	Activity [1] [%]	Activity (A549 [2])	other results
O=C1CCCc2c1cc1cccn1c2C(=O)c1ccc(F)cc1	66.2	40.94%	
N#Cc1cc2cccn2c(C(=O)c2ccc(Cl)cc2)c1N	13.6	2.87%	
COc1ccc(C(=O)c2c3c(cc4cccn24)C(=O)CCC3)cc1	67.5	51.36%	
CCOC(=O)c1cc2cccn2c(C(=O)c2ccc(OC)cc2)c1N	86.4	98.46%	
COc1ccc(C(=O)c2c(N)c(C#N)cc3cccn23)cc1	7.03	Dose-dependent effect	Activity (A549 [3]): 43.65%; Activity (A549 [4]): 2.3%; Activity (A549 [5]): 15.6%; Activity (A549 [6]): 8%; Activity (A549 [7]): 0.95%; Activity (A549 [8]): 9.7%; Activity (A549 [9]): tde; Activity (A549 [10]): 14.7%; Activity (A549 [11]): 73.35%; Activity (A549 [12]): tde; Activity (A549 [13]): tde; Activity (A549 [14]): tde; Activity (A549 [15]): 2.25%; Activity (A549 [16]): 1.15%; Activity (A549 [2]; record 2): 0%; Activity (A549 [17]): 88.55%; Activity (A549 [18]): 39.8%
O=C1CCCc2c1cc1cccn1c2C(=O)c1ccccc1	67.3	55.44%	
CCOC(=O)c1c(N)c(C#N)cc2cccn12	47	85.35%	
N#Cc1cc2cccn2c(C(=O)c2ccc(F)cc2)c1N	22.2	1.51%	
N#Cc1cc2cccn2c(C(=O)c2ccc(OCc3ccccc3)cc2)c1N	69.1	35.05%	
O=C1CCCc2c1cc1cccn1c2C(=O)c1ccc(Cl)cc1	64.5	47.73%	

Second part, led by results:

Activity [1] [%]	SMILES	Activity (A549 [2])	other results
90.3	CC(=O)c1cc2cccn2c(C(=O)c2ccccc2)c1C	92.02%	
26.2	N#Cc1cc2cccn2c(C(=O)c2ccccc2)c1N	13.75%	
79.1	Cc1c(C(=O)O)cc2cccn2c1C(=O)c1ccccc1	101.93%	
52.9	CC(=O)c1cc2cccn2c(C(=O)c2ccc(Cl)cc2)c1C	79.46%	
